Results: patent US10167412B2, “Phenol polymer with 5,5′-biaryl bonds, method for preparing same, and uses thereof” (INSTITUT NATIONAL DE LA RECHERCHE AGRONOMIQUE, priority 2013, dated 2019)

Target: T1, estrogen receptors (Homo sapiens, UniProt P03372)
T1 construct: expressed in transfected cells; host or cells: HELN-ERα cell line (HeLa-derived, per own knowledge of Escande et al. 2006)
T1 sequence (P03372 1-595): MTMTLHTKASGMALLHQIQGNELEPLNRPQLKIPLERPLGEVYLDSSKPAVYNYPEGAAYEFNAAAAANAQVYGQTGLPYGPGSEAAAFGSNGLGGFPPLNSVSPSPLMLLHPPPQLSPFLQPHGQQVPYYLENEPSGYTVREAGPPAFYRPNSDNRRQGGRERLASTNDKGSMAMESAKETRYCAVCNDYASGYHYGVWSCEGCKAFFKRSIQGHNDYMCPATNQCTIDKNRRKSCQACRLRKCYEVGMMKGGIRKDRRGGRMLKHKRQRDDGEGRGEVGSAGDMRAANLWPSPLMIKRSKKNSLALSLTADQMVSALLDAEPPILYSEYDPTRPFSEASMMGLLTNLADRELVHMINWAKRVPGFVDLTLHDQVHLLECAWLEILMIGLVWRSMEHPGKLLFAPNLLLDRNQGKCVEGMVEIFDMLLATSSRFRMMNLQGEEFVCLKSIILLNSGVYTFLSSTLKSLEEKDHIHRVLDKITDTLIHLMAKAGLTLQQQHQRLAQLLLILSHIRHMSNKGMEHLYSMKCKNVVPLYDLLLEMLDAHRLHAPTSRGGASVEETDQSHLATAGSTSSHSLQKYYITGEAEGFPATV
Assay: Test for toxicity with respect to estrogen receptors on the HELN-ERα cell line
Type: cell-based
Conditions: for interaction with estrogen receptors (% of antagonist activity with respect to estradiol (E2) at 10 nM): FIG. 12, result in words
Method: A test for toxicity with respect to estrogen receptors was carried out for the IDF, PDF, GDF and BDF macrobisphenols, according to the method set out in the publication by Molina-Molina et al., 2008 (Toxicol. Appl. Pharmacol., doi: 10.1016/j.taap.2008.07.017), on the HELN-ERα cell line, described in the publication by Escande et al., 2006 (Biochemical Pharmacology, 71, 1459-1469).
The results obtained, expressed as % of antagonist activity with respect to the activity of estradiol (E2) at 10 nM, as a function of the monomer concentration, are shown in FIG. 12.

Row | Structure (SMILES) | interaction with estrogen receptors (% of antagonist activity with respect to estradiol (E2) at 10 nM) | percentage activity with respect to the activity of estradiol (E2) at 10 nM (at 10^−5 M) [%] | percentage activity with respect to the activity of estradiol (E2) at 10 nM (at 10^−6 M) [%]
1 | COc1cc(CCC(=O)OCCCCOC(=O)CCc2ccc(O)c(OC)c2)ccc1O [BDF, butane-1,4-di(dihydroferulate)] | interact only very little | – | –
2 | COc1cc(CCC(=O)OCC(O)COC(=O)CCc2ccc(O)c(OC)c2)ccc1O [GDF, glycerol-3-di(dihydroferulate)] | interact only very little | – | –
3 | COc1cc(CCC(=O)O[C@H]2CO[C@H]3[C@@H]2OC[C@H]3OC(=O)CCc2ccc(O)c(OC)c2)ccc1O [IDF, isosorbide-2,5-(dihydroferulate)] | interact only very little | – | –
4 | COc1cc(CCC(=O)OCCCOC(=O)CCc2ccc(O)c(OC)c2)ccc1O [PDF, propane-1,3-di(dihydroferulate)] | interact only very little | – | –
5 | CC(C)(c1ccc(O)cc1)c1ccc(O)cc1 [bisphenol A, reference compound] | – | 60 | 45
